Experimental data as given in patent US8653095B2, “Small molecules with antimalarial activity” (Radix Pharmaceuticals, Inc., priority 2011, dated 2014).
Values joined by “and” are separate entries in the source; they are usually repeats but may differ in a detail not shown here. Equal values may be shown once. “Also recorded” adds a separate entry of the source.

Key:
[1] = system: chloroquine-resistant FVO strain of P. falciparum; assay: Efficacy against blood stages of P. falciparum in Aotus monkeys; type: in vivo; settings: oral for 3 days
Procedure: In Vivo Efficacy Studies in Aotus Monkey Model. The monkeys selected for the study had active infections of the chloroquine-resistant FVO strain of P. falciparum. Once parasitemias reached 5,000/μl (or as deemed appropriate by the attending veterinarian), they were treated orally with Formula B or Formula C at 2, 4, 8, or 16 mg/kg/day for 3 days. For compound Formula B, the dosage needed to cure 50% of animals was 4 mg/kg/day and the dosage needed to cure 100% of animals was 16 mg/kg/day. For compound Formula C, the 50% curative dose was 2 mg/kg/day and the 100% curative dose was 8 mg/kg/day (Table 7).
Malaria-naive Panamanian owl monkeys (Aotus lemurinus lemurinus) were used as hosts for chioroquine-resistant P. falciparum. The chloroquine-resistant Vietnam Smith strain was used in the initial experiments. In subsequent studies, a recrudescent isolate from a Vietnam Smith strain infected Aotus monkey treated with chloroquine was used.
The inoculum size produced a parasitemia of at least 5×10^3/mm^3 by the fifth day postinoculation, at which time treatment was begun. Stock solutions of water-soluble drug were prepared at appropriate concentrations and maintained at 4° C. during the course of treatment. A suspension of water-insoluble drugs was prepared in 0.3% methylcellulose just prior to use. All drugs were administered by gastric intubation in a volume of 7.0 ml, followed by a 7.0-mi rinse with either water or 0.3% methylcellulose. Test drug was given orally for either three or seven consecutive days. In several experiments, the putative resistance modulator was given three times per day (8:00 AM, noon, and 4:00 PM) for three or seven days.
Giemsa-stained blood smears were prepared from all animals and examined daily beginning the day after inoculation until parasitemia was cleared and for at least seven days thereafter. At that time, blood films were examined twice a week up to 100 days after treatment. Thick blood films were considered negative if no parasites were seen after examination for at least five min. Ten or less parasites on a thick blood film were recorded as <10. Parasitemia was enumerated and expressed as number of parasites/mm^3. Treated animals were observed twice a day for signs of drug toxicity, as evidenced by abnormal behavior, anorexia, diarrhea, or vomiting. Necropsies were per formed on all animals that died. In conducting the research described in this report, the investigators adhered to the Guide for the Care and Use of Laboratory Animals, as promulgated by the National Research Council.
The outcome of each infection was compared with untreated controls and monkeys treated with chloroquine. […]

[2] = in vivo; settings: Sprague-Dawley, rat, po; for MTD at 2 weeks: MTD (maximum tolerated dose)
[3] = system: Plasmodium cynomolgi sporozoite; assay: Causal prophylactic activity in P. cynomolgi sporozoite-challenged Rhesus monkeys; type: in vivo; settings: PO, 15 mg/kg, 1 daily for 3 days, one value per monkey
Excerpt: Two monkeys were used in each test group. The control animals developed parasitemia in about 10 days after inoculation of about 1×10^6 P. cynomolgi sporozoites harvested from Anopheles dirus. All the monkeys received three treatments, once a day for three consecutive days beginning a day before (−1, 0,+1) the sporozoites challenge. The control monkeys (group 1) received HECT and the experimental animals received testing compound by using 8 Fr., 15-in. long nasogastric tubes.

[4] = system: Plasmodium cynomolgi; assay: Radical curative activity in relapsed Rhesus monkeys; type: in vivo; settings: for Monkeys cured: co-administered with chloroquine; for Days post-treatment (relapse) / Results (radical curative test): with CQ 10 mg/kg/day for 7 days, one value per monkey
Excerpt: Compounds with antihypnozoite activity will delay the relapse or radically cure the infection. […] Relapse was expected in the control group. Relapse in the treated group indicates failure of the test compounds. […] After standard treatment, blood smears were monitored daily for 4 consecutive days of negative results and 2 times weekly for 2 weeks.

[5] = system: P. falciparum African NF54 strain; assay: In vivo efficacy in immunocompromised BXN mice infected with P. falciparum NF54; settings: Plasmodium falciparum, 96 h, oral once daily for 4 days
Excerpt: Antimalarial efficacy data was obtained by evaluating new compounds in two rodent models: (I) Swiss mice infected with rodent malaria strain P. berghei; (II) Immunocompromised BXN mice infected with either the sensitive P. falciparum African NF54 strain or the multi-drug resistant P. falciparum Thailand T24 strain.

[6] = system: P. falciparum DD2; assay: In vitro blood stage antimalarial efficacy, [3H]hypoxanthine uptake, strain DD2; type: cell-based; settings: Plasmodium falciparum, read-out: IC50
Procedure: In Vitro Blood Stage Antimalarial Efficacy Evaluation. New compounds were tested against a panel of strains of P. falciparum.
Test compounds were initially dissolved in DMSO and diluted 400 fold in RPMI 1640 culture medium supplemented with 25 mM Hepes, 32 mM NaHCO3 and 10% Albumax I (Gibco, NY). These solutions were subsequently serially diluted two-fold with a Beckman Biomek® 1000 Robot (Fullerton, Calif.) over 11 different concentrations. The parasites were exposed to serial dilutions of each compound for 48 hrs and incubated at 37° C. with 5% O2, 5% CO2 and 90% N2 prior to the addition of [^3H]hypoxanthine. After a further incubation of 18 hrs, parasite DNA was harvested from each microtiter well using Packard Filtermate™ 196 Harvester (Meriden, Conn.) onto glass filters. Uptake of [^3H]hypoxanthine was measured with a Packard TopCount Liquid Scintillation Counter (Packard Instrument Co.).

[7] = system: Plasmodium berghei; assay: Oral prophylactic test in mice; type: in vivo; settings: for Mice infected and treated/Mice surviving day 60: oral; for Protection from malaria (oral prophylactic activity): mice, single dose of 0.5 mg/kg within 2 days pre-infection through 2 days post-infection
Procedure: Derivative compounds were also tested for oral prophylactic activity.
CD-I male or female mice, 5 weeks of age, were infected with 5×10^4 parasitized erythrocytes of Plasmodium berghei strain. Blood films were taken on day +6 and weekly thereafter until day+30. […]

[8] = Drug 2 at 15 mg/kg PO 1 daily for 3 days
[9] = Drug 2 at 30 mg/kg PO 1 daily for 3 days
[10] = day of treatment 1, dose 0.5 mg/kg
[11] = day of treatment 1, dose 2 mg/kg
[12] = day of treatment 1, dose 8 mg/kg
[13] = day of treatment 1, dose 32 mg/kg
[14] = day of treatment 2, dose 0.5 mg/kg
[15] = day of treatment 2, dose 2 mg/kg
[16] = day of treatment 2, dose 8 mg/kg
[17] = day of treatment 2, dose 32 mg/kg
[18] = day of treatment −1, dose 0.5 mg/kg
[19] = day of treatment −1, dose 2 mg/kg
[20] = day of treatment −1, dose 8 mg/kg
[21] = day of treatment −1, dose 32 mg/kg
[22] = day of treatment −2, dose 0.5 mg/kg
[23] = day of treatment −2, dose 2 mg/kg
[24] = day of treatment −2, dose 8 mg/kg
[25] = day of treatment −2, dose 32 mg/kg

CC[C@@H](N)[C@H](O)[C@H](O)[C@H](COC)[C@@H]1CC[C@@]23CC24c2nc5ccc(OC)cc5cc2C(=O)N[C@H]4CN13 (stereo partly drawn) [Formula B]
Dosage needed to cure 50% of animals (50% curative dose) [1]: 4 mg/kg/day
Dosage needed to cure 100% of animals (100% curative dose) [1]: 16 mg/kg/day
NOAEL at 2 weeks [2]: > 100 mg/kg/day
MTD at 2 weeks [2]: > 500 mg/kg
Parasite patency (days postinoculation) [3]: 41 days and 55 days
Monkeys cured ([4]; 15 mg/kg/day level): one out of two monkeys
Monkeys cured ([4]; 30 mg/kg/day level): all monkeys
Days post-treatment (relapse) [4, 8]: 42 days and no relapse
Results (radical curative test) [4, 8]: delayed relapse; also recorded: radical curative
Days post-treatment (relapse) [4, 9]: no relapse
Results (radical curative test) [4, 9]: radical curative
ED50 [5]: 0.24 mg/kg
IC50 [6]: 0.27 ± 0.07 nM
Mice infected and treated/Mice surviving day 60 [7, 10]: 5/5
Mice infected and treated/Mice surviving day 60 [7, 11]: 5/5
Mice infected and treated/Mice surviving day 60 [7, 12]: 5/5
Mice infected and treated/Mice surviving day 60 [7, 13]: 5/5
Mice infected and treated/Mice surviving day 60 [7, 14]: 5/5
Mice infected and treated/Mice surviving day 60 [7, 15]: 5/5
Mice infected and treated/Mice surviving day 60 [7, 16]: 5/5
Mice infected and treated/Mice surviving day 60 [7, 17]: 5/5
Mice infected and treated/Mice surviving day 60 [7, 18]: 5/5
Mice infected and treated/Mice surviving day 60 [7, 19]: 5/5
Mice infected and treated/Mice surviving day 60 [7, 20]: 5/5
Mice infected and treated/Mice surviving day 60 [7, 21]: 5/5
Mice infected and treated/Mice surviving day 60 [7, 22]: 5/5
Mice infected and treated/Mice surviving day 60 [7, 23]: 5/5
Mice infected and treated/Mice surviving day 60 [7, 24]: 5/5
Mice infected and treated/Mice surviving day 60 [7, 25]: 5/5
Protection from malaria (oral prophylactic activity) [7]: completely protected

COC[C@@H]([C@@H](O)[C@@H](O)[C@H](N)Cc1ccccc1)[C@@H]1CC[C@@]23CC24c2nc5ccc(OC)cc5cc2C(=O)N[C@H]4CN13 (stereo partly drawn) [Formula C]
Dosage needed to cure 50% of animals (50% curative dose) [1]: 2 mg/kg/day
Dosage needed to cure 100% of animals (100% curative dose) [1]: 8 mg/kg/day
NOAEL at 2 weeks [2]: > 100 mg/kg/day
MTD at 2 weeks [2]: > 500 mg/kg
Parasite patency (days postinoculation) [3]: 48 days and 64 days
Monkeys cured ([4]; 15 mg/kg/day level): one out of two monkeys
Monkeys cured ([4]; 30 mg/kg/day level): all monkeys
Days post-treatment (relapse) [4, 8]: 53 days and no relapse
Results (radical curative test) [4, 8]: delayed relapse; also recorded: radical curative
Days post-treatment (relapse) [4, 9]: no relapse
Results (radical curative test) [4, 9]: radical curative
ED50 [5]: 0.2 mg/kg
IC50 [6]: 0.16 ± 0.03 nM
Mice infected and treated/Mice surviving day 60 [7, 10]: 5/5
Mice infected and treated/Mice surviving day 60 [7, 11]: 5/5
Mice infected and treated/Mice surviving day 60 [7, 12]: 5/5
Mice infected and treated/Mice surviving day 60 [7, 13]: 5/5
Mice infected and treated/Mice surviving day 60 [7, 14]: 5/5
Mice infected and treated/Mice surviving day 60 [7, 15]: 5/5
Mice infected and treated/Mice surviving day 60 [7, 16]: 5/5
Mice infected and treated/Mice surviving day 60 [7, 17]: 5/5
Mice infected and treated/Mice surviving day 60 [7, 18]: 5/5
Mice infected and treated/Mice surviving day 60 [7, 19]: 5/5
Mice infected and treated/Mice surviving day 60 [7, 20]: 5/5
Mice infected and treated/Mice surviving day 60 [7, 21]: 5/5
Mice infected and treated/Mice surviving day 60 [7, 22]: 5/5
Mice infected and treated/Mice surviving day 60 [7, 23]: 5/5
Mice infected and treated/Mice surviving day 60 [7, 24]: 5/5
Mice infected and treated/Mice surviving day 60 [7, 25]: 5/5
Protection from malaria (oral prophylactic activity) [7]: completely protected
